According to patent US10023570B2 (Array BioPharma, Inc., priority 2015, dated 2018):
Where a name gives a salt, the structure may show the parent alone.

Target: human KDR protein in HEK-293 cells (Homo sapiens (Human), UniProt P35968)
Assay: KDR Cell Assay (phospho-KDR in HEK-293 cells expressing inducible KDR)
Type: cell-based
Settings: pKDR Cell HEK 10% FBS IC50, HEK-293 cells expressing inducible KDR, VEGF stimulated
Summary of the method: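 HEK-293 cells with inducible human KDR were treated with compound for 1 h in DMEM (0.25% DMSO final), then lysed. Phospho-KDR was quantified by Meso Scale immunoassay, expressed as percent of control, and IC50 taken where a 4-parameter logistic fit crossed 50 POC.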

Sequence of human KDR protein in HEK-293 cells (P35968 20-1356): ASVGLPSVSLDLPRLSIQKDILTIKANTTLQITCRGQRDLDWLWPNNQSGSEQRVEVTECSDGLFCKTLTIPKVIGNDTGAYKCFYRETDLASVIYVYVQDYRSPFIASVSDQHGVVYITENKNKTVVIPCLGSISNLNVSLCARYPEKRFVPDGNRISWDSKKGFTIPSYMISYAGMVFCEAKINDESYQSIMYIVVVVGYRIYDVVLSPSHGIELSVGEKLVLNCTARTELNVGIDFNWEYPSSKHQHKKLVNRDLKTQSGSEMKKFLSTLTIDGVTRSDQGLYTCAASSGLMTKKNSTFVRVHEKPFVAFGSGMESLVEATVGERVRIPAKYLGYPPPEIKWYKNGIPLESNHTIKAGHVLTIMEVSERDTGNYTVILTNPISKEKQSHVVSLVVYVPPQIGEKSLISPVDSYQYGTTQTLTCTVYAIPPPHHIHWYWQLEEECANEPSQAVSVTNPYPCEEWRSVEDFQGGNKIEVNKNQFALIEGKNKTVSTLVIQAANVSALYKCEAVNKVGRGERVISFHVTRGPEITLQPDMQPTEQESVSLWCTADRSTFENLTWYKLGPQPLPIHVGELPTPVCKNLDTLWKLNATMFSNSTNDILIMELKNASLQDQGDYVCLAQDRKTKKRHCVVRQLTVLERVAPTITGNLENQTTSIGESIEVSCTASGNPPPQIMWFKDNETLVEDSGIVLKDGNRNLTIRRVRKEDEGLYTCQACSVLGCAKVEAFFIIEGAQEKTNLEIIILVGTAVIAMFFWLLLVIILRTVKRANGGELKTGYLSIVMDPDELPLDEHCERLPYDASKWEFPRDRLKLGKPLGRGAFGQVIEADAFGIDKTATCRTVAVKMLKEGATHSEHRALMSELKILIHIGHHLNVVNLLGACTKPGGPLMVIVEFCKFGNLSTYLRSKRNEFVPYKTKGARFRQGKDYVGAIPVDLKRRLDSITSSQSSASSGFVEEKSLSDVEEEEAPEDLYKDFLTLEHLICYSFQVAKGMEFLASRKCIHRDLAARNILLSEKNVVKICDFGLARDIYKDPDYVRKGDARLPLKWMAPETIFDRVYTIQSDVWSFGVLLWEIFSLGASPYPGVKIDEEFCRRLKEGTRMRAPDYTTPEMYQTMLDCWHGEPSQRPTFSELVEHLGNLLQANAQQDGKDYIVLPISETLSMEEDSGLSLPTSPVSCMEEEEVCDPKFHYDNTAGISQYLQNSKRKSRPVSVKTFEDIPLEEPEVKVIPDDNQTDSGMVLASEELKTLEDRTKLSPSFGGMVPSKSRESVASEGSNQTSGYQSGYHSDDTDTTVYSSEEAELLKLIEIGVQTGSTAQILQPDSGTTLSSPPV

IC50 (10% FBS) [µM]	IC50 [µM]	SMILES
0.0485		Cn1cc(-c2cc(-c3ccc(N4CCN(C[C@H](O)c5ccccc5)CC4)nc3)c3c(C#N)cnn3c2)cn1 [Example 161, (R)-4-(6-(4-(2-hydroxy-2-phenylethyl)piperazin-1-yl)pyridin-3-yl)-6-(1-methyl-1H-pyrazol-4-yl)pyrazolo[1,5-a]pyridine-3-carbonitrile]
	0.804	Cn1cc(-c2cc(-c3ccc(N4CCN(Cc5ccc(F)cn5)CC4)nc3)c3c(C#N)cnn3c2)cn1 [Example 462, 4-(6-(4-((5-fluoropyridin-2-yl)methyl)piperazin-1-yl)pyridin-3-yl)-6-(1-methyl-1H-pyrazol-4-yl)pyrazolo[1,5-a]pyridine-3-carbonitrile]
	1.77	Cn1cc(-c2cc(-c3ccc(N4CCN(Cc5ncccn5)CC4)nc3)c3c(C#N)cnn3c2)cn1 [Example 472, 6-(1-methyl-1H-pyrazol-4-yl)-4-(6-(4-(pyrimidin-2-ylmethyl)piperazin-1-yl)pyridin-3-yl)pyrazolo[1,5-a]pyridine-3-carbonitrile]
	1.9	Cn1cc(-c2cc(-c3ccc(N4CCN(CC(F)(F)F)CC4)nc3)c3c(C#N)cnn3c2)cn1 [Example 419, 6-(1-methyl-1H-pyrazol-4-yl)-4-(6-(4-(2,2,2-trifluoroethyl)piperazin-1-yl)pyridin-3-yl)pyrazolo[1,5-a]pyridine-3-carbonitrile]
0.155		Cn1cc(-c2cc(-c3ccc(N4CCN(CC(O)c5c(F)cccc5F)CC4)nc3)c3c(C#N)cnn3c2)cn1 (stereo not shown) [Example 154, 4-(6-(4-(2-(2,6-difluorophenyl)-2-hydroxyethyl)piperazin-1-yl)pyridin-3-yl)-6-(1-methyl-1H-pyrazol-4-yl)pyrazolo[1,5-a]pyridine-3-carbonitrile]
0.546		Cc1ccc(CC(=O)N2CCN(c3ccc(-c4cc(-c5cnn(C)c5)cn5ncc(C#N)c45)cn3)CC2)cn1 [Example 19, 6-(1-methyl-1H-pyrazol-4-yl)-4-(6-(4-(2-(6-methylpyridin-3-yl)acetyl)piperazin-1-yl)pyridin-3-yl)pyrazolo[1,5-a]pyridine-3-carbonitrile]
0.551		Cn1cc(-c2cc(-c3ccc(N4CCN(C(=O)N5CC[C@H](F)C5)CC4)nc3)c3c(C#N)cnn3c2)cn1 [Example 102, (S)-4-(6-(4-(3-fluoropyrrolidine-1-carbonyl)piperazin-1-yl)pyridin-3-yl)-6-(1-methyl-1H-pyrazol-4-yl)pyrazolo[1,5-a]pyridine-3-carbonitrile]
	1.63	CC(C)N1CCN(c2ccc(-c3cc(-c4cnn(C)c4)cn4ncc(C#N)c34)cn2)CC1 [Example 410, 4-(6-(4-isopropylpiperazin-1-yl)pyridin-3-yl)-6-(1-methyl-1H-pyrazol-4-yl)pyrazolo[1,5-a]pyridine-3-carbonitrile]
0.555		Cn1cc(-c2cc(-c3ccc(N4CCOCC4)nc3)c3c(C#N)cnn3c2)cn1 [Example 224, 6-(1-methyl-1H-pyrazol-4-yl)-4-(6-morpholinopyridin-3-yl)pyrazolo[1,5-a]pyridine-3-carbonitrile]
	0.668	Cn1cc(-c2cc(-c3ccc(N4CCN(Cc5cc(F)cc(F)c5)CC4)nc3)c3c(C#N)cnn3c2)cn1 [Example 447, 4-(6-(4-(3,5-difluorobenzyl)piperazin-1-yl)pyridin-3-yl)-6-(1-methyl-1H-pyrazol-4-yl)pyrazolo[1,5-a]pyridine-3-carbonitrile]

Second part, the compound before the results:

SMILES	IC50 (10% FBS) [µM]	IC50 [µM]
Cn1cc(-c2cc(-c3ccc(N4CCC5(CCCNC5)C4)nc3)c3c(C#N)cnn3c2)cn1 (stereo not shown) [Example 546, 4-(6-(2,7-diazaspiro[4.5]decan-2-yl)pyridin-3-yl)-6-(1-methyl-1H-pyrazol-4-yl)pyrazolo[1,5-a]pyridine-3-carbonitrile dihydrochloride]		0.811
Cn1cc(-c2cc(-c3ccc(N4CCC5(CC4)CN(C(=O)C4CCCCC4)C5)nc3)c3c(C#N)cnn3c2)cn1 [Example 495, 4-(6-(2-(cyclohexanecarbonyl)-2,7-diazaspiro[3.5]nonan-7-yl)pyridin-3-yl)-6-(1-methyl-1H-pyrazol-4-yl)pyrazolo[1,5-a]pyridine-3-carbonitrile]		0.771
Cn1cc(-c2cc(-c3ccc(N4CC5(CCN(C(=O)OC(C)(C)C)CC5)C4)nc3)c3c(C#N)cnn3c2)cn1 [Example 223, tert-butyl 2-(5-(3-cyano-6-(1-methyl-1H-pyrazol-4-yl)pyrazolo[1,5-a]pyridin-4-yl)pyridin-2-yl)-2,7-diazaspiro[3.5]nonane-7-carboxylate]	1.55	
Cn1cc(-c2cc(-c3ccc(N4CCN(C(=O)N5CCC(F)CC5)CC4)nc3)c3c(C#N)cnn3c2)cn1 [Example 114, 4-(6-(4-(4-fluoropiperidine-1-carbonyl)piperazin-1-yl)pyridin-3-yl)-6-(1-methyl-1H-pyrazol-4-yl)pyrazolo[1,5-a]pyridine-3-carbonitrile]	2.25	
N#Cc1cnn2cc(-c3cnn(C(F)F)c3)cc(-c3ccc(N4CCN(C(=O)[C@H](O)c5ccccc5)CC4)nc3)c12 [Example 268, (R)-6-(1-(difluoromethyl)-1H-pyrazol-4-yl)-4-(6-(4-(2-hydroxy-2-phenylacetyl)piperazin-1-yl)pyridin-3-yl)pyrazolo[1,5-a]pyridine-3-carbonitrile]	0.497	
Cn1cc(-c2cc(-c3ccc(N4CCN(C(=O)C(c5ccccc5)N5CCCCC5)CC4)nc3)c3c(C#N)cnn3c2)cn1 (stereo not shown) [Example 368, 6-(1-methyl-1H-pyrazol-4-yl)-4-(6-(4-(2-phenyl-2-(piperidin-1-yl)acetyl)piperazin-1-yl)pyridin-3-yl)pyrazolo[1,5-a]pyridine-3-carbonitrile bis(2,2,2-trifluoroacetate)]	1.85	
CN1CCC2(CCCN(c3ccc(-c4cc(-c5cnn(C)c5)cn5ncc(C#N)c45)cn3)C2)CC1 [Example 555, 6-(1-methyl-1H-pyrazol-4-yl)-4-(6-(9-methyl-2,9-diazaspiro[5.5]undecan-2-yl)pyridin-3-yl)pyrazolo[1,5-a]pyridine-3-carbonitrile]		1.03
Cn1cc(-c2cc(-c3ccc(N4CCC(C(=O)NC5CC(F)(F)C5)CC4)nc3)c3c(C#N)cnn3c2)cn1 [Example 238, 1-(5-(3-cyano-6-(1-methyl-1H-pyrazol-4-yl)pyrazolo[1,5-a]pyridin-4-yl)pyridin-2-yl)-N-(3,3-difluorocyclobutyl) piperidine-4-carboxamide]	0.42	
Cn1cc(-c2cc(-c3ccc(N4CCC5(CCCOC5)C4)nc3)c3c(C#N)cnn3c2)cn1 (stereo not shown) [Example 529, 4-(6-(7-oxa-2-azaspiro[4.5]decan-2-yl)pyridin-3-yl)-6-(1-methyl-1H-pyrazol-4-yl)pyrazolo[1,5-a]pyridine-3-carbonitrile]		≥ 5
CN(C)C(=O)N1CC2(CCN(c3ccc(-c4cc(-c5cnn(C)c5)cn5ncc(C#N)c45)cn3)CC2)C1 [Example 501, 7-(5-(3-cyano-6-(1-methyl-1H-pyrazol-4-yl)pyrazolo[1,5-a]pyridin-4-yl)pyridin-2-yl)-N,N-dimethyl-2,7-diazaspiro[3.5]nonane-2-carboxamide]		0.554
Cn1cc(-c2cc(-c3ccc(N4CCC5(CC4)CC(N)C5)nc3)c3c(C#N)cnn3c2)cn1 [Example 544, 4-(6-(2-amino-7-azaspiro[3.5]nonan-7-yl)pyridin-3-yl)-6-(1-methyl-1H-pyrazol-4-yl)pyrazolo[1,5-a]pyridine-3-carbonitrile dihydrochloride]		0.234
Cn1cc(-c2cc(-c3ccc(N4C5CC4CN(Cc4ccccc4)C5)nc3)c3c(C#N)cnn3c2)cn1 [Example 490, 4-(6-(3-benzyl-3,6-diazabicyclo[3.1.1]heptan-6-yl)pyridin-3-yl)-6-(1-methyl-1H-pyrazol-4-yl)pyrazolo[1,5-a]pyridine-3-carbonitrile]		0.619
CC(C)[C@@H](O)C(=O)N1CC2(CCN(c3ccc(-c4cc(-c5cnn(C)c5)cn5ncc(C#N)c45)cn3)CC2)C1 [Example 216, (R)-4-(6-(2-(2-hydroxy-3-methylbutanoyl)-2,7-diazaspiro[3.5]nonan-7-yl)pyridin-3-yl)-6-(1-methyl-1H-pyrazol-4-yl)pyrazolo[1,5-a]pyridine-3-carbonitrile]	0.574	
Cn1cc(-c2cc(-c3cnc(N4CCN(C(=O)[C@H](O)c5ccccc5)CC4)nc3)c3c(C#N)cnn3c2)cn1 [Example 282, (R)-4-(2-(4-(2-hydroxy-2-phenylacetyl)piperazin-1-yl)pyrimidin-5-yl)-6-(1-methyl-1H-pyrazol-4-yl)pyrazolo[1,5-a]pyridine-3-carbonitrile]	0.662	
Cn1cc(-c2cc(-c3ccc(N4CC[C@H](C(=O)NCCC(F)(F)F)C4)nc3)c3c(C#N)cnn3c2)cn1 [Example 262, (S)-1-(5-(3-cyano-6-(1-methyl-1H-pyrazol-4-yl)pyrazolo[1,5-a]pyridin-4-yl)pyridin-2-yl)-N-(3,3,3-trifluoropropyl)pyrrolidine-3-carboxamide]	0.617	
Cn1cc(-c2cc(-c3ccc(N4CCC5(CC4)CN(C(=O)Cc4ccccc4)C5)nc3)c3c(C#N)cnn3c2)cn1 [Example 218, 6-(1-methyl-1H-pyrazol-4-yl)-4-(6-(2-(2-phenylacetyl)-2,7-diazaspiro[3.5]nonan-7-yl)pyridin-3-yl)pyrazolo[1,5-a]pyridine-3-carbonitrile]	4.79	
Cn1cc(-c2cc(-c3ccc(N4CCN(C(=O)Cc5ccc(C#N)cc5)CC4)nc3)c3c(C#N)cnn3c2)cn1 [Example 365, 4-(6-(4-(2-(4-cyanophenyl)acetyl)piperazin-1-yl)pyridin-3-yl)-6-(1-methyl-1H-pyrazol-4-yl)pyrazolo[1,5-a]pyridine-3-carbonitrile 2,2,2-trifluoroacetate]	0.597	
Cn1cc(-c2cc(-c3ccc(N4CC[C@@H](C(=O)NCCC(F)(F)F)C4)nc3)c3c(C#N)cnn3c2)cn1 [Example 259, (R)-1-(5-(3-cyano-6-(1-methyl-1H-pyrazol-4-yl)pyrazolo[1,5-a]pyridin-4-yl)pyridin-2-yl)-N-(3,3,3-trifluoropropyl)pyrrolidine-3-carboxamide]	2.77	
